Measurements taken from patent US6521661B1, “Cyclic peroxides as novel antifungal agents” (Harbor Branch Oceanographic Institution, Inc., priority 2000, dated 2003).
Values after ≈ are worked out from the molar mass of the structure shown.

Columns and labels:
[1] = tested on: Candida albicans; assay: Antifungal microtiter broth assay; assay type: cell-based; settings: 24 hours, 37° C., RPMI medium, scored visually
Procedure: Preparation of Stocks Cultures of Candida albicans. Freeze-dried C. albicans yeast stocks (ATCC 90028) were each resuspended in 1 mL sterile distilled, de-ionized water. Slants were made with five mL of MPG agar (2% (w/v) malt extract, 2% (w/v) glucose, 0.1% (w/v) bacto-peptone, 1.5% (w/v) agar) in 16×125 mm disposable glass culture tubes, inoculated with approximately […] of the above cell suspension, incubated at 25° C. for 7 days and then frozen at −80° C. To prepare glycerol stocks, a slant was thawed and the yeast cells were resuspended in 5 mL sterile distilled, de-ionized water. This 5 mL cell suspension was used to inoculate 50 mL of Sabouraud Dextrose Broth (3% (w/v) [Gibco]) in a 250 mL Ehrlenmeyer flask and was incubated 18-24 hours at 37° C., 180 rpm. Fifty milliliters of Sabouraud Dextrose Broth in a 250 mL Ehrlenmeyer flask were inoculated with 1×10^7 cells per mL of the previous culture and grown under the same conditions. After 18-24 hours, sufficient glycerol was added to this culture to make a 10% (v/v) solution (final concentration). This solution was aliquoted in 1 mL portions, frozen on dry ice, and stored at −50° C. A thawed glycerol stock was used to inoculate 50 mL Sabouraud's Dextrose Broth in a 250 mL Ehrlenmeyer flask and grown for 18-24 hours, at 37° C., 180 rpm. This culture was used to inoculate 96-well microtiter plates [Nunc] at 2×10^3 cells per 200 μL per well in liquid RPMI medium (RPMI-1640 [Gibco], 0.165 M MOPS, pH 7.0).
(§1) Each well of a 96-well microtiter plate contained 200 μL of inoculum of C. albicans or A. fumigatus and 0.1 to 125 μg/mL of marine extract in DMSO. Controls for each assay were 0.025 to 16 μg/mL of amphotericin B, and 2 μL of DMSO. Culture plates were incubated for 24 or 48 hours (for C. albicans and A. fumigatus respectively) at 37° C., 120 rpm and scored visually using a light microscope. […] Percent inhibition was estimated. The Minimum Inhibitory Concentration was determined. Samples were considered active if they inhibited 50% or more growth.

[2] = tested on: Aspergillus fumigatus; assay: Antifungal microtiter broth assay; assay type: cell-based; settings: 48 hours, 37° C., RPMI medium, scored visually
Procedure: Preparation of Stock Cultures of Aspergillus fumigatus. Freeze-dried A. fumigatus stocks (ATCC 16424) were resuspended in 1 mL sterile distilled, de-ionized water. Slants were made with five mL of MPG agar (2% (w/v) malt extract, 2% (w/v) glucose, 0.1% (w/v) bacto-peptone, 1.5% (w/v) agar) in 16×125 mm disposable glass culture tubes, inoculated with approximately 50 μL of the above cell suspension, incubated at 25° C. for 7 days and then frozen at −80° C. To prepare glycerol stocks, a slant was thawed and conidia were resuspended in 5 mL sterile distilled, de-ionized water. Two hundred mL of MPG agar (2% (w/v) malt extract, 2% (w/v) glucose, 0.1% (w/v) bacto-peptone, 1.5% (w/v) agar) in a 1000 mL Ehrlenmeyer flask were inoculated with this 5 mL cell suspension, incubated 5-7 days at 37° C., and then frozen at −20° C. This flask was thawed and conidia were resuspended in 20 mL of sterile distilled, de-ionized water. Sufficient glycerol was added to this 20 mL suspension to make a 10% (v/v) solution (final concentration). This solution was aliquoted in 1 mL portions, frozen on dry ice, and stored at −50° C. A thawed glycerol stock was used to inoculate 96-well microtiter plates at 2×10^4 conidia per 200 μL per well in liquid RPMI medium (RPMI-1640 [Gibco], 0.165 M MOPS, pH 7.0).
as §1

[3] = tested on: cardiac sarcoplasmic reticulum; settings: cited from earlier work
[4] = tested on: murine leukemia (P388) cells; settings: cited from earlier work
[5] = tested on: S. cerevisiae; settings: at 100 mg/disk; cited from earlier work
[6] = tested on: P. atrovenetum; settings: at 100 mg/disk; cited from earlier work
[7] = tested on: P388 murine leukemia; settings: cited from earlier work
[8] = molecular target: T1, cdc25a (Homo sapiens, UniProt P30304); settings: cited from earlier work
T1 sequence (P30304 1-524): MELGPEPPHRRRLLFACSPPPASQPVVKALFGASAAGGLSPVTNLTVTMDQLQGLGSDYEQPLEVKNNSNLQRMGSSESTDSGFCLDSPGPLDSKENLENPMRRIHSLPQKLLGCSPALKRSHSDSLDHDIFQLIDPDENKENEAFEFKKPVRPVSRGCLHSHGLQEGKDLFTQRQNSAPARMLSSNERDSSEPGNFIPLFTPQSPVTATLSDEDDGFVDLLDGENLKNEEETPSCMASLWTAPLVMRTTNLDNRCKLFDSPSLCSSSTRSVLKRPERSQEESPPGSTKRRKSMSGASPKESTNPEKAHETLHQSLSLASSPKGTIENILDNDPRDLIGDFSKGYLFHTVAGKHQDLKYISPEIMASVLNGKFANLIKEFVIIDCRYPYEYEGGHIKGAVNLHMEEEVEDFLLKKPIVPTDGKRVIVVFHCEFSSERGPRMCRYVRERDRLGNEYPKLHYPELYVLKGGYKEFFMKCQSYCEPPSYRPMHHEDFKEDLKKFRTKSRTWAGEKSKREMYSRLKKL

Molecule | IC50 [1] | IC90 [1] | IC50 [2] | IC90 [2] | further results
CC(CCCCCC/C=C/C=C/c1ccccc1)C[C@]1(C)C[C@](C)(CC(=O)O)OO1 (stereo partly shown) [Peroxyacid 4] | 31.2 mg/L (≈ 75.3 µM) | 31.2 mg/L (≈ 75.3 µM) | 31.2 mg/L (≈ 75.3 µM) | 31.2 mg/L (≈ 75.3 µM) | –
CC/C=C/C=C/C=C/CCCCCCCC[C@]1(C)C[C@](C)(CC(=O)O)OO1 [Peroxyacid 1] | 25 mg/L (≈ 66 µM) | 25 mg/L (≈ 66 µM) | 25 mg/L (≈ 66 µM) | 25 mg/L (≈ 66 µM) | –
Plakortide H | – | – | – | – | Ca2+ uptake by the cardiac sarcoplasmic reticulum [3]: significantly enhanced
CC/C=C/C(CC)CCC[C@@]1(CC)C[C@H](CC)[C@H](CC(=O)OC)OO1 (stereo partly shown) [Plakortide F] | – | – | – | – | Ca2+ uptake by the cardiac sarcoplasmic reticulum [3]: significantly enhanced
COC(=O)C[C@@]1(C)C[C@](C)(CC(C)CCCCCCc2ccccc2)OO1 (stereo partly shown) [Epiplakinic acid E methyl ester] | – | – | – | – | Cytotoxicity against P388 cells [4]: Cytotoxicity
CC(/C=C/c1ccccc1)C/C=C/C(C)C[C@]1(C)C[C@H](C)[C@@H](CC(=O)O)OO1 (stereo partly shown) [Plakinic acid B] | – | – | – | – | Antifungal activity vs. S. cerevisiae (zone) [5]: 20 mm; Antifungal activity vs. P. atrovenetum (zone) [6]: 18 mm
CC/C=C/C=C/C=C/CCCCCCCC[C@]1(C)C[C@@](C)(CC(=O)O)OO1 [Peroxyacid 2] | 25 mg/L (≈ 66 µM) | 25 mg/L (≈ 66 µM) | 25 mg/L (≈ 66 µM) | 25 mg/L (≈ 66 µM) | –
CC(/C=C/c1ccccc1)C/C=C/C(C)CC1(C)CC(C)(CC(=O)O)OO1 (stereo not shown) [Plakinic acid A] | – | – | – | – | Antifungal activity vs. S. cerevisiae (zone) [5]: 24 mm; Antifungal activity vs. P. atrovenetum (zone) [6]: 25 mm
Plakortide G | – | – | – | – | Ca2+ uptake by the cardiac sarcoplasmic reticulum [3]: significantly enhanced
CC/C=C/C(CC)CC(C)CC1(CC)C[C@H](CC)[C@H](CC(=O)O)OO1 (stereo partly shown) | – | – | – | – | IC50 against P388 murine leukemia [7]: 500 mg/L (≈ 1410 µM)
CC/C=C/C(CC)C/C=C/[C@@]1(CC)C[C@H](CC)[C@@H](CC(=O)O)OO1 (stereo partly shown) [Peroxyacid 6] | 2 mg/L (≈ 5.91 µM) | 3.9 mg/L (≈ 11.5 µM) | 5.6 mg/L (≈ 16.5 µM) | 5.6 mg/L (≈ 16.5 µM) | –
C[C@]1(CCCCCCCCCCc2ccccc2)C[C@](C)(CC(=O)O)OO1 [Peroxyacid 5, Epiplakinic Acid h] | 0.25 mg/L (≈ 0.664 µM) | 0.25 mg/L (≈ 0.664 µM) | 0.5 mg/L (≈ 1.33 µM) | 0.5 mg/L (≈ 1.33 µM) | Inhibition of the enzyme cdc25a [8]: inhibitor
CC(CCCCCC/C=C/C=C/c1ccccc1)C[C@]1(C)C[C@@](C)(CC(=O)O)OO1 (stereo partly shown) [Peroxyacid 3] | 31.2 mg/L (≈ 75.3 µM) | 62.5 mg/L (≈ 151 µM) | 62.5 mg/L (≈ 151 µM) | 62.5 mg/L (≈ 151 µM) | –
